The results in this text go back to article PMC10283052, “Intranasal delivery of mitochondrial protein humanin rescues cell death and promotes mitochondrial function in Parkinson's disease” (Theranostics, 2023).

Assay [1] deals with SH-SY5Y cells. The assay can be described thus: Mitochondrial mass and network morphology, MitoTracker Green. In kind it is cell-based, human. To be noted: HN 20 μM, 24 h. On the procedure:
For staining, the cells were seeded on PDL-coated glass slides and treated as indicated above. The samples were fixed using methanol and permeabilized using 0.1% Triton X-100 in PBS. After blocking with 5% bovine serum albumin (BSA), the cells were incubated with the appropriate primary antibody [anti-HN (1:500, Cat no # RA19000, Neuromics, Edina, MN, USA), anti-TH (1:500, Cat no # P40101, Pel-Freez Biologicals, Rogers, AR, USA), anti-lectin (1:200, Cat no # L32482, Thermo Fisher Scientific), anti-α-SMA (1:500, Cat no # ab5694, Abcam, Cambridge, MA, USA), and anti-GFAP (1:200, Cat no # sc-33673, Santa Cruz, Santa Cruz, USA)]. After incubation, the samples were washed and incubated with Alexa Fluor 594- or 488-conjugated antibodies (Thermo Fisher Scientific). The nuclei were stained using Hoechst 33342 (Sigma-Aldrich) and mounted using an anti-fade solution (Thermo Fisher Scientific). Fluorescent images were captured at the Neuroscience Translational Research Solution Center (Busan, South Korea) using an LSM 700 confocal microscope (Zeiss, Jena, Germany). The mitochondrial network morphology was assessed using the FIJI/ImageJ software as described previously.

In assay [2] the test system is SH-SY5Y cells. The assay can be described thus: Mitochondrial membrane potential (TMRM) and mitochondrial ROS (MitoSOX). In kind it is cell-based, human. As for the experimental part: The SH-SY5Y cells were cultured in 96-well plates for 24 h before treatment. At the indicated time points, the cellular medium was removed, and the cells were washed with PBS. Mitochondrial ROS levels were measured using MitoSOX Red (Thermo Fisher Scientific) as described previously. The cells were counterstained using Hoechst 33342 (Sigma-Aldrich). Fluorescence intensity was quantified using a Synergy H1 multimode microplate reader (BioTek, Winooski, VT, USA) according to the manufacturer's protocol.
The cells were seeded in 96-well plates and treated as described above. To analyze the mitochondrial membrane potential, TMRM (Thermo Fisher Scientific) was used according to the manufacturer's instructions. The cells were counterstained using Hoechst 33342 (Sigma-Aldrich). Fluorescence intensity was assessed using a Synergy H1 multimode microplate reader or an LSR Fortessa cytometer at the Neuroscience Translational Research Solution Center.

In assay [3] the test system is SH-SY5Y cells. The assay can be described thus: Real-time qPCR of genes of mitochondrial function. The format is cell-based, human. As to conditions: HN 20 μM, 24 h. As for the experimental part:
For real-time qPCR, total RNA was extracted using TRIzol reagent (Thermo Fisher Scientific). cDNA was synthesized using a cDNA synthesis kit (Bioneer Corporation), according to the manufacturer's protocol. The mRNA levels were analyzed in a LightCycler 96 (Roche, Basel, Switzerland) using SYBR Green I master mix and SensiFAST™ SYBR® No-ROX Kit (Bioline, Paris, France). B2M (beta-2-microglobulin) gene expression was used to normalize gene expression data. The primer sequences used in this experiment are in Table S2.
(In general: In qPCR the cycle at which signal appears reflects the starting amount.)

For assay [4], the system named is Murine primary dopaminergic neurons. The assay can be described thus: MPP+ toxicity in primary dopaminergic neurons (MTT, neurite analysis). In kind it is cell-based, mouse. As for the experimental part: Primary mesencephalic cell cultures were prepared using gestational day 13.5 embryos from C57BL/6J mice, as previously described. The mesencephalon was dissected from the embryos and dissociated in a medium containing 0.25% trypsin-EDTA and 0.05% DNase in PBS for 15 min at 37 °C. Tissue samples were mechanically dissociated by gentle pipetting using Pasteur pipettes. After centrifugation at 400 x g for 5 min, the cells were plated in Neurobasal-A medium (Thermo Fisher Scientific, Waltham, MA, USA) supplemented with 2% B27 supplement (Thermo Fisher Scientific), 1× Glutamax (Thermo Fisher Scientific), 5% fetal bovine serum (FBS), 0.36% D-glucose, and 1% Penicillin/Streptomycin (P/S) in poly-L-ornithine/laminin (Sigma-Aldrich)-coated plates. On day 4 in vitro (DIV), the plating medium was replaced, and the neurons were used on DIV 8 for subsequent experiments.
Following treatment with the aforementioned reagents, the cells were washed and treated with 3-(4,5-dimethylthiazol-2-yl)-2,5-diphenyl-tetrazolium bromide (MTT, Thermo Fisher Scientific). Briefly, the cells were seeded in a 96-well plate at a density of 5 × 10^3 cells/well. After 24 h, a neurotoxin 1-methyl-4-phenylpyridinium (MPP^+) (Sigma-Aldrich) was applied to induce toxicity in neuronal cells. Next, the cells were incubated with MTT for 4 h, and formazan crystals were solubilized using DMSO. Absorbance was measured using a multi-plate reader at a wavelength of 570 nm, and the viability of the cells was recorded as a percentage of the control.

Where [5] appears, read: HN pre-treatment 12 h, then MPP+ 100 μM 24 h, dose-dependent.

As for “humanin (MAPRGFSCLLLLTSEIDLPVKRRA; Humanin; UniProt Q8IVG9 1-24, looked up) [HN, mitochondria-derived peptide encoded by the mitochondrial genome, synthesized by Fmoc-based SPPS at GL Biochem]”, in the assay on SH-SY5Y cells [1] (versus DMSO), the mitochondrial branch length result is “longer rods and branches of mitochondria”; the mitochondrial volume entry is given as “increase in mitochondrial volume”; the “number of branches per mitochondrial network” value is on record as “increase”. Besides, the mitochondrial mass result with SH-SY5Y cells [1] (MitoTracker Green) was “increased mitochondrial mass”. The FCCP-induced mitochondrial depolarization result with SH-SY5Y cells [2] (HN pre-treatment 24 h, 20 μM, FCCP 5 μM, 15 min, flow cytometry) was “effective in restoring”. For the same substance, the “mitochondrial membrane potential (TMRM)” value in the assay with SH-SY5Y cells [2] (HN pre-treatment before MPP+, flow cytometry, normalized to Hoechst 33342) is recorded as “effectively inhibited reduction in mitochondrial potential”. The “mitochondrial ROS production (MitoSOX)” value in the assay on SH-SY5Y cells [2] (HN pre-treatment before MPP+, normalized to Hoechst 33342) is reported as “effectively inhibited”. Further, the “transcript levels of mitochondrial biogenesis (PGC-1α, NRF1, ESRRA) and oxidative phosphorylation (SDHA, ATP5F1A, ATP5F1D) genes” value with SH-SY5Y cells [3] is reported as “significant increase”. The “expression of fatty acid metabolism and TCA cycle genes” value with SH-SY5Y cells [3] (ACC2, ACLY, FASN, IDH3A) is listed as “a significant alteration was not observed”. In addition, in assay [4] (HN 1 μM versus DMSO), the neurite number entry is given as “increased neurite number”. Moreover, in assay [4] (setting [5]), the “neurite loss induced by MPP+” value is “rescued the neurite loss and neuronal death”; the “neuronal death induced by MPP+ (viability, MTT)” value was “rescued the neurite loss and neuronal death”. The “average length of all sprouting neurites per neuron” value in assay [4] (HN-treated versus DMSO-treated neurons, slightly higher) is “not statistically significant”.
